Where two headings read alike, the source gives them in different places.
What was measured:
A498 renal cancer cells = tested on: A498 renal cancer cells
Procedure: (§1) The effective dose of NaB on renal cancer was determined by colorimetric tetrazolium (MTS) viability assay on renal cancer cells (ACHN and A498) and healthy renal cells (RPTEC). MTS (3-(4,5-dimethyl-thiazol-2-yl)-5-(3-carboxy-methoxy-phenyl)-2-(4-sulfo-phenyl)-2H-tetrazolium) is a colorimetric assay based on the tetrazolium salt. The assay measures the enzyme activity which reduces MTS to the purple formazan. Cell cultures incubated for two hours are read by measuring the absorbance at 490 nm wavelength by means of ELISA. The NaB compound is dissolved at different concentrations (at ratios of 500 μg/ml, 1000 μg/ml, 1500 μg/ml, 2000 μg/ml, 2500 μg/ml, 3000 μg/ml, 3500 μg/ml for renal cancer cells, and 500 μg/ml, 1000 μg/ml, 2500 μg/ml, 5000 μg/ml, 7000 μg/ml for healthy renal cells) in the medium suitable for the cell used (30 seconds of vortexing is applied after the addition of the agent), filtered through 0.22 micron filters, and sterilized. MTS assays are performed at hours 24, 48, and 72, and as a result, the concentrations of dead cells at the IC50 dose are determined and the next steps are continued with these dosages.

ACHN renal cancer cells = tested on: ACHN renal cancer cells
Procedure: as §1

[1] = tested on: renal cancer cells (ACHN and A498) and healthy renal cells (RPTEC); settings: IC50 dose for cancer cells applied 72 hours; cancer vs healthy cells
Procedure: Whether the death rates of renal cancer cells treated with the agent at the dosage determined by the MTS assay are dependent on apoptosis or not is determined by Annexin V assay. […] Annexin V binds to PSs, which were translocated to the outer surface of the cell, thereby making the apoptotic cell visible and it is measured by flow cytometry. Since Annexin V binding can also be observed on the surface of necrotic cells, Propidium Iodide (Red Fluorescence), which stains only dead cells, was added as a second stain. Cells, which are simultaneously stained with Annexin V-FITC (Green Fluorescence) and Propidium Iodide (Red Fluorescence), allow viable cells (FITC−PI−), early apoptotic cells (FITC+PI−), and late apoptotic or necrotic cells (FITC+PI+) to be distinguished from each other. Cells marked with Annexin V-FITCH-conjugated markers are analyzed by flow cytometry.

[2] = tested on: ACHN and A498 renal cancer cells; settings: dosage determined by the MTS assay
Procedure: Cell proliferation analyses of renal cancer cells treated with the agent at the dosage determined by the MTS assay are performed by EdU (Ethinyl-2′-deoxyuridine) assay. […] For this assay, 10 uM EdU is applied to the cells cultured on slides placed in 6-well plates. Following the incubation, cells are fixed for 15 minutes with 3.7% formaldehyde diluted in PBS, and then washed with 3% BSA also diluted in PBS. Cell membrane permeability is increased by treatment with 0.5% nonionic surfactant diluted in PBS at room temperature for 20 minutes. After a final washing with 3% BSA solution, the reaction cocktail is added to the cells. Cells are incubated at room temperature for 30 minutes, and then the EdU-stained cells, which are actively synthesizing DNA, are observed under a confocal microscope.

IC50 determined by MTS (A498 renal cancer cells; A498, Hour 24): >7000 µg/mL | IC50 determined by MTS (A498 renal cancer cells; A498, Hour 48): 1900 µg/mL | IC50 determined by MTS (ACHN renal cancer cells; Hour 24): >7000 µg/mL | IC50 determined by MTS (ACHN renal cancer cells; Hour 48): 2000 µg/mL
Substance: sodium pentaborate pentahydrate
IC50 determined by MTS (dose which killed 50% of renal cancer cells) (A498 renal cancer cells; A498, Hour 72): 1400 µg/mL | IC50 (A498 renal cancer cells; read-out: dose which killed 50% of renal cancer cells, A498, molar equivalent of the μg/ml value): 4.7 mM | IC50 determined by MTS (dose which killed 50% of renal cancer cells) (ACHN renal cancer cells; Hour 72): 1550 µg/mL | IC50 (ACHN renal cancer cells; read-out: dose which killed 50% of renal cancer cells, molar equivalent of the μg/ml value): 5.2 mM | programmed cell death (apoptosis) [1]: selectively leads cancer cells to programmed cell death | effect on cell proliferation [2]: slows down cell proliferation

From US20250325581A1, “USE OF SODIUM PENTABORATE PENTAHYDRATE AS A CHEMOTHERAPEUTIC AGENT” (YEDITEPE UNIVERSITESI, priority 2022, published 2025)
